Experimental data as given in patent US9388148B2, “Acylaminocycloalkyl compounds suitable for treating disorders that respond to modulation of dopamine D3 receptor” (AbbVie Deutschland GmbH & Co. KG, priority 2013, dated 2016).

Assays:
[1] = Determination of the microsomal half-life / microsomal clearance; assay type: in vitro ADME; conditions: pH 7.4; human liver microsomes, 0.5 μM test substance, 0.25 mg protein/ml, NADPH, 37° C.; read-out: Human mCl (mikrosomal clearance)
Method: The metabolic stability of the compounds of the invention was determined in the following assay.
The test substances were incubated in a concentration of 0.5 μM as follows:
0.5 μM test substance are preincubated together with liver microsomes from different species (from rat, human or other species) (0.25 mg of microsomal protein/ml) in 0.05 M potassium phosphate buffer of pH 7.4 in microtiter plates at 37° C. for 5 min. The reaction is started by adding NADPH (1 mg/mL). After 0, 5, 10, 15, 20 and 30 min, 50 μl aliquots are removed, and the reaction is immediately stopped and cooled with the same volume of acetonitrile. The samples are frozen until analyzed. The remaining concentration of undegraded test substance is determined by MSMS. The half-life (T1/2) is determined from the gradient of the signal of test substance/unit time plot, it being possible to calculate the half-life of the test substance, assuming first order kinetics, from the decrease in the concentration of the compound with time. The microsomal clearance (mC1) is calculated from mC1=1n2/T1/2/(content of microsomal protein in mg/ml)×1000 [ml/min/mg] (modified from references: Di, The Society for Biomoleculur Screening, 2003, 453-462; Obach, DMD, 1999 vol 27. N 11, 1350-1359).

[2] = target: T1, human dopamine D2L receptors (long isoform) (Homo sapiens, UniProt P14416); assay: Dopamine D2L receptor binding ([125I]iodospiperone displacement); conditions: selectivity ratio, human D2L vs human D3 binding
T1 construct: expressed in transfected cells; host or cells: HEK-293
Method: The substance to be tested was either dissolved in methanol/Chremophor® (BASF SE) or in dimethyl sulfoxide and then diluted with water to the desired concentration.
Each assay mixture was run in triplicate. • The incubation buffer contained 50 mM tris, 120 mM NaCl, 5 mM KCl, 2 mM CaCl2, 2 mM MgCl2 and 0.1% bovine serum albumin, 10 μM quinolone and 0.1% ascorbic acid (prepared fresh daily). […] Each assay mixture was run in triplicate. • The incubation buffer contained 50 mM tris, 120 mM NaCl, 5 mM KCl, 2 mM CaCl2, 2 mM MgCl2 and 0.1% bovine serum albumin. The buffer was adjusted to pH 7.4 with HCl. c) Measurement and analysis: • After having been incubated at 25° C. for 60 minutes, the assay mixtures were filtered through a Whatman GF/B glass fiber filter under vacuum using a cell col-lecting device. The filters were transferred to scintillation viols using a filter transfer system. After 4 ml of Ultima Gold® (Packard) have been added, the samples were shaken for one hour and the radioactivity was then counted in a Beta-Counter (Packard, Tricarb 2000 or 2200CA).

T1 sequence (P14416 whole entry, canonical isoform): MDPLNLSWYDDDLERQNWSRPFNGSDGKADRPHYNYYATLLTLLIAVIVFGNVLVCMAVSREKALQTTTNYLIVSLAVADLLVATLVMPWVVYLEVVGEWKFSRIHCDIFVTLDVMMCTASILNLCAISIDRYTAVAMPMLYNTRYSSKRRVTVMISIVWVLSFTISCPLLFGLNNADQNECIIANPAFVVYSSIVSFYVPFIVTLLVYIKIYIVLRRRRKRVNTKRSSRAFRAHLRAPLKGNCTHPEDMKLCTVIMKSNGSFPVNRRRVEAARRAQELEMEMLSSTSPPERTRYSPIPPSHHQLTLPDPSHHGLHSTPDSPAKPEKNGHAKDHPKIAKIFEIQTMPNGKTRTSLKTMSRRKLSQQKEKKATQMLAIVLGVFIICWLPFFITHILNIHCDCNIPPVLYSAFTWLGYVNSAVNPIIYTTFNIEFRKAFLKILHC

Row | microsomal CLint at 0.5 μM [1] [µL/min/mg] | D2/D3, Ki (D2L)/Ki (D3) [2] | SMILES
1 | 20 to 120 | ++ (++ >20) | CC(C)(C)c1nc(N2CCN(CC[C@H]3CC[C@H](NC(=O)[C@H]4CC[C@H](O)CC4)CC3)CC2)cc(C(F)(F)F)n1 [Compound 21, trans-N-[trans-4-[2-[4-[2-tert-butyl-6-(trifluoromethyl)pyrimidin-4-yl]piperazin-1-yl]ethyl]cyclohexyl]-4-hydroxy-cyclohexanecarboxamide]
2 | 20 to 120 | +++ (+++ >50) | CC(C)(C)c1nc(N2CCN(CC[C@H]3CC[C@@H](NC(=O)[C@H]4CC[C@H](O)CC4)CC3)CC2)cc(C(F)(F)F)n1 [Compound 23, Trans-N-[cis-4-[2-[4-[2-tert-butyl-6-(trifluoromethyl)pyrimidin-4-yl]piperazin-1-yl]ethyl]cyclohexyl]-4-hydroxy-cyclohexanecarboxamide]
3 | 20 to 120 | + (+ >10) | CC(C)(C)c1nc(C(F)F)cc(N2CCN(CCC3CCC(NC(=O)C4CCC(O)CC4)CC3)CC2)n1 (centres unmarked) [Compound 29, N-[4-[2-[4-[2-tert-butyl-6-(difluoromethyl)pyrimidin-4-yl]piperazin-1-yl]ethyl]cyclohexyl]-4-hydroxy-cyclohexanecarboxamide]
4 | 20 to 120 | ++ (++ >20) | CC(C)(C)c1nc(C(F)F)cc(N2CCN(CC[C@H]3CC[C@@H](NC(=O)[C@H]4CC[C@H](O)CC4)CC3)CC2)n1 [Compound 30, Trans-N-[cis-4-[2-[4-[2-tert-butyl-6-(difluoromethyl)pyrimidin-4-yl]piperazin-1-yl]ethyl]cyclohexyl]-4-hydroxy-cyclohexanecarboxamide]
5 | 20 to 120 | ++ (++ >20) | CC(C)c1cc(N2CCN(CCC3CCC(NC(=O)C4CCC(O)CC4)CC3)CC2)nc(C(C)(C)C)n1 (centres unmarked) [Compound 31, N-[4-[2-[4-(2-tert-butyl-6-isopropyl-pyrimidin-4-yl)piperazin-1-yl]ethyl]cyclohexyl]-4-hydroxy-cyclohexanecarboxamide]
6 | 20 to 120 | ++ (++ >20) | CC(C)c1cc(N2CCN(CC[C@H]3CC[C@H](NC(=O)[C@H]4CC[C@H](O)CC4)CC3)CC2)nc(C(C)(C)C)n1 [Compound 32, Trans-N-[trans-4-[2-[4-(2-tert-butyl-6-isopropyl-pyrimidin-4-yl)piperazin-1-yl]ethyl]cyclohexyl]-4-hydroxy-cyclohexanecarboxamide]

Second part, the compound before the results:

Row | SMILES | microsomal CLint at 0.5 μM [1] [µL/min/mg] | D2/D3, Ki (D2L)/Ki (D3) [2]
7 | CC(C)(C)c1nc(C2CCC2)cc(N2CCN(CC[C@H]3C[C@H](NC(=O)[C@H]4CC[C@@H](O)CC4)C3)CC2)n1.O=C(O)C(F)(F)F [Compound 16, Cis-N-[trans-3-[2-[4-(2-tert-butyl-6-cyclobutyl-pyrimidin-4-yl)piperazin-1-yl]ethyl]cyclobutyl]-4-hydroxy-cyclohexanecarboxamide; 2,2,2-trifluoroacetic acid] | > 120 | ++ (++ >20)
8 | COCCc1cc(N2CCN(CC[C@H]3CC[C@H](NC(=O)[C@H]4C[C@@H](O)C4)CC3)CC2)nc(C(C)(C)C)n1 [Compound 18, cis-N-[trans-4-[2-[4-[2-tert-butyl-6-(2-methoxyethyl)pyrimidin-4-yl]piperazin-1-yl]ethyl]cyclohexyl]-3-hydroxy-cyclobutanecarboxamide] | 20 to 120 | +++ (+++ >50)
9 | CC(C)(C)c1cc(N2CCN(CC[C@H]3CC[C@H](NC(=O)[C@H]4CC[C@H](O)CC4)CC3)CC2)nc(C(C)(C)C)n1 [Compound 20, trans-N-[trans-4-[2-[4-(2,6-ditert-butylpyrimidin-4-yl)piperazin-1-yl]ethyl]cyclohexyl]-4-hydroxy-cyclohexanecarboxamide] | 20 to 120 | ++ (++ >20)
10 | CC(C)(C)c1cc(N2CCN(CC[C@H]3CC[C@@H](NC(=O)[C@H]4CC[C@H](O)CC4)CC3)CC2)nc(C(C)(C)C)n1 [Compound 22, trans-N-[cis-4-[2-[4-(2,6-ditert-butylpyrimidin-4-yl)piperazin-1-yl]ethyl]cyclohexyl]-4-hydroxy-cyclohexanecarboxamide] | 20 to 120 | +++ (+++ >50)
11 | COCCc1cc(N2CCN(CC[C@H]3CC[C@H](NC(=O)[C@H]4CC[C@H](OC)CC4)CC3)CC2)nc(C(C)(C)C)n1 [Compound 24, trans-N-[trans-4-[2-[4-[2-tert-butyl-6-(2-methoxyethyl)pyrimidin-4-yl]piperazin-1-yl]ethyl]cyclohexyl]-4-methoxy-cyclohexanecarboxamide] | > 120 | ++ (++ >20)
12 | CC(C)(C)c1nc(N2CCN(CCC3CCC(NC(=O)C4CCC(O)CC4)CC3)CC2)cc(C2(C)CC2)n1 (centres unmarked) [Compound 27, N-[4-[2-[4-[2-tert-butyl-6-(1-methylcyclopropyl)pyrimidin-4-yl]piperazin-1-yl]ethyl]cyclohexyl]-4-hydroxy-cyclohexanecarboxamide] | 20 to 120 | ++ (++ >20)
13 | CC(C)(C)c1nc(N2CCN(CC[C@H]3CC[C@@H](NC(=O)[C@H]4CC[C@H](O)CC4)CC3)CC2)cc(C2(C)CC2)n1 [Compound 28, Trans-N-[cis-4-[2-[4-[2-tert-butyl-6-(1-methylcyclopropyl)pyrimidin-4-yl]piperazin-1-yl]ethyl]cyclohexyl]-4-hydroxy-cyclohexanecarboxamide] | 20 to 120 | ++ (++ >20)
14 | COCCc1cc(N2CCN(CCC3CCC(NC(=O)C4CCC(O)CC4)CC3)C[C@H]2C)nc(C(C)(C)C)n1 (stereo partly drawn) [Compound 33, N-[4-[2-[(3R)-4-[2-tert-butyl-6-(2-methoxyethyl)pyrimidin-4-yl]-3-methyl-piperazin-1-yl]ethyl]cyclohexyl]-4-hydroxy-cyclohexanecarboxamide] | 20 to 120 | +++ (+++ >50)
15 | COCCc1cc(N2CCN(CC[C@H]3CC[C@H](NC(=O)[C@H]4CC[C@H](O)CC4)CC3)C[C@H]2C)nc(C(C)(C)C)n1 [Compound 34, trans-N-[trans-4-[2-[(3R)-4-[2-tert-butyl-6-(2-methoxyethyl)pyrimidin-4-yl]-3-methyl-piperazin-1-yl]ethyl]cyclohexyl]-4-hydroxy-cyclohexanecarboxamide] | 20 to 120 | +++ (+++ >50)
16 | CC(C)(C)c1nc(C2CCCC2)cc(N2CCN(CC[C@H]3CC[C@H](NC(=O)[C@H]4CC[C@H](O)CC4)CC3)CC2)n1 [Compound 35, trans-N-[trans-4-[2-[4-(2-tert-butyl-6-cyclopentyl-pyrimidin-4-yl)piperazin-1-yl]ethyl]cyclohexyl]-4-hydroxy-cyclohexanecarboxamide] | 20 to 120 | + (+ >10)
17 | CC(C)(C)c1nc(C2CCCC2)cc(N2CCN(CC[C@H]3CC[C@@H](NC(=O)[C@H]4CC[C@H](O)CC4)CC3)CC2)n1 [Compound 36, trans-N-[cis-4-[2-[4-(2-tert-butyl-6-cyclopentyl-pyrimidin-4-yl)piperazin-1-yl]ethyl]cyclohexyl]-4-hydroxy-cyclohexanecarboxamide] | 20 to 120 | +++ (+++ >50)
18 | COCc1cc(N2CCN(CC[C@H]3CC[C@H](NC(=O)[C@H]4CC[C@H](O)CC4)CC3)CC2)nc(C(C)(C)C)n1 [Compound 37, trans-N-[trans-4-[2-[4-[2-tert-butyl-6-(methoxymethyl)pyrimidin-4-yl]piperazin-1-yl]ethyl]cyclohexyl]-4-hydroxy-cyclohexanecarboxamide] | 20 to 120 | +++ (+++ >50)
19 | CC(C)(C)c1nc(C2CCC2)cc(N2CCN(CC[C@H]3CC[C@H](NC(=O)[C@H]4C[C@H](O)C4)CC3)CC2)n1.O=C(O)C(F)(F)F [Compound 38, trans-N-[trans-4-[2-[4-(2-tert-butyl-6-cyclobutyl-pyrimidin-4-yl)piperazin-1-yl]ethyl]cyclohexyl]-3-hydroxy-cyclobutanecarboxamide; 2,2,2-trifluoroacetic acid] | < 20 | ++ (++ >20)
